According to BigSolDB 2.1:

C=C(C)[C@@H]1CC[C@]2(CO)CC[C@]3(C)[C@H](CC[C@@H]4[C@@]5(C)CC[C@H](O)C(C)(C)[C@@H]5CC[C@]43C)[C@@H]12
solubility (mole fraction)
Conditions | 278.2 K | 288.2 K | 298.2 K | 308.2 K | 318.2 K
in acetone | 0.000689 | 0.00101 | 0.0015 | 0.00203 | 0.00243
in ethanol | 0.000842 | 0.00096 | 0.00107 | 0.00124 | 0.00135
